Reference: US10899793B2, “Melanocortin ligands and methods of use thereof” (priority 2016, dated 2021)
Square brackets hold non-standard residues; d marks the D form. Peptide text beside a SMILES is read from it. Bip = N[C@@H](Cc1ccc(-c2ccccc2)cc1)C(=O)O; dPhe(4-I) = N[C@H](Cc1ccc(I)cc1)C(=O)O; 2Nal = N[C@@H](Cc1ccc2ccccc2c1)C(=O)O; d2Nal = N[C@H](Cc1ccc2ccccc2c1)C(=O)O; Bta = N[C@@H](Cc1csc2ccccc12)C(=O)O; Tic = O=C(O)[C@@H]1Cc2ccccc2CN1

Tests used:
mMC3R [1] = biological target: T1, mMC3R (Mus musculus, UniProt P33033); conditions: Table 1; Schild analysis, pA2 = -Log(Ki); Full Agonist = full dose-response, No Activity = no shift in EC50
mMC4R = mMC4R (Mus musculus, UniProt P56450); conditions: for mMC4R Antagonist pA2 ± SEM: Table 1, Schild analysis, pA2 = -Log(Ki)
mMC3R [2] = biological target: T1, mMC3R; assay: AlphaScreen cAMP agonist assay at mMC3R; conditions: Table 1; @ 100 μM
mMC5R = mMC5R (Mus musculus, UniProt P41149); assay: AlphaScreen cAMP agonist assay at mMC5R; conditions: read-out: percent of the NDP-MSH maximal positive control, Table 2
mMC5R, sequence (P41149 whole entry): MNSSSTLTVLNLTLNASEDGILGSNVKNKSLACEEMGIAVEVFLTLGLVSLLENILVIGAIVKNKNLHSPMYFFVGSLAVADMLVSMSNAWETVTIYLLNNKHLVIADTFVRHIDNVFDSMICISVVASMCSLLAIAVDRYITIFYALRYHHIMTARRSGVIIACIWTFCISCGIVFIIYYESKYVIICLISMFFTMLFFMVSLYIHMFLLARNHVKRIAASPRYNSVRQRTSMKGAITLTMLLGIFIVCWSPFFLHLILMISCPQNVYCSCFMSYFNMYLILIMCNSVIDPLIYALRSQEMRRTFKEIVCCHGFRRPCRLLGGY

mMC4R, sequence (P56450 whole entry): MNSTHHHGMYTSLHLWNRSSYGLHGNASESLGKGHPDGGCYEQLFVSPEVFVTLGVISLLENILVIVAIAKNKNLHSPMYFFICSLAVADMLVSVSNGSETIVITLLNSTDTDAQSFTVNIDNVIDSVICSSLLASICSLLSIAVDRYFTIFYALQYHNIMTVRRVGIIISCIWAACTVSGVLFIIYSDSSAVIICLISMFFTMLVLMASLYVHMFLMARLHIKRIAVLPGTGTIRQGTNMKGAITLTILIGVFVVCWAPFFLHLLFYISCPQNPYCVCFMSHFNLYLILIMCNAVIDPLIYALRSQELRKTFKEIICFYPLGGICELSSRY
T1 sequence (P33033 whole entry): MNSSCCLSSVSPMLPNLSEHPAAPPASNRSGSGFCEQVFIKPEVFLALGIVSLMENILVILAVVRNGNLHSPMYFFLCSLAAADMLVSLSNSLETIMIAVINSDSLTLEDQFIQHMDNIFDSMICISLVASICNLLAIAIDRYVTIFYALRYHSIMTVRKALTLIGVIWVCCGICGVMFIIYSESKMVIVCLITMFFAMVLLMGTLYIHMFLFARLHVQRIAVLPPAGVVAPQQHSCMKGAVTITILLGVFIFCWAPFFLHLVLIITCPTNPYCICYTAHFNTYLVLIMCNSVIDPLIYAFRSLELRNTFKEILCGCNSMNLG

Row | Structure (SMILES) | mMC3R Antagonist pA2 ± SEM (mMC3R [1]) | mMC4R Antagonist pA2 ± SEM (mMC4R) | mMC3R Agonist, percent of the NDP-MSH maximal positive control (mMC3R [2]) | activation at 100 µM (mMC5R) | antagonist pA2 at the mMC4R (mMC4R)
1 | CC(=O)N[C@@H](Cc1ccc2ccccc2c1)C(=O)N[C@@H](CCCNC(=N)N)C(=O)N[C@H](Cc1ccc(I)cc1)C(=O)N[C@@H](Cc1ccc(-c2ccccc2)cc1)C(N)=O [SKY4-48-8, Ac-Nal(2′)-Arg-(pI)DPhe-Bip-NH2] (Ac-[2Nal]R[dPhe(4-I)][Bip]-NH2) | Full Agonist | Full Agonist | – | – | –
2 | CC(=O)N[C@@H](Cc1ccc(-c2ccccc2)cc1)C(=O)N[C@@H](CCCNC(=N)N)C(=O)N[C@H](Cc1ccc(I)cc1)C(=O)N[C@@H](Cc1csc2ccccc12)C(N)=O [SKY4-48-12, Ac-Bip-Arg-(pI)DPhe-3Bal-NH2] (Ac-[Bip]R[dPhe(4-I)][Bta]-NH2) | Full Agonist | No Activity | – | – | –
3 | CC(=O)N[C@@H](Cc1csc2ccccc12)C(=O)N[C@@H](CCCNC(=N)N)C(=O)N[C@H](Cc1ccc(I)cc1)C(=O)N[C@@H](Cc1csc2ccccc12)C(N)=O [SKY4-48-13, Ac-3Bal-Arg-(pI)DPhe-3Bal-NH2] (Ac-[Bta]R[dPhe(4-I)][Bta]-NH2) | Full Agonist | – | – | – | –
4 | CC(=O)N[C@@H](Cc1ccc2ccccc2c1)C(=O)N[C@@H](CCCNC(=N)N)C(=O)N[C@H](Cc1ccc(I)cc1)C(=O)N[C@@H](Cc1csc2ccccc12)C(N)=O [SKY4-48-16, Ac-Nal(2′)-Arg-(pI)DPhe-3Bal-NH2] (Ac-[2Nal]R[dPhe(4-I)][Bta]-NH2) | Full Agonist | – | – | – | –
5 | CC(=O)N[C@@H](Cc1ccc(-c2ccccc2)cc1)C(=O)N[C@@H](CCCNC(=N)N)C(=O)N[C@H](Cc1ccc(I)cc1)C(=O)N1Cc2ccccc2C[C@H]1C(N)=O [SKY4-48-20, Ac-Bip-Arg-(pI)DPhe-Tic-NH2] (Ac-[Bip]R[dPhe(4-I)][Tic]-NH2) | Full Agonist | – | – | – | –
6 | CC(=O)N[C@@H](Cc1ccc(-c2ccccc2)cc1)C(=O)N[C@@H](CCCNC(=N)N)C(=O)N[C@H](Cc1ccc(I)cc1)C(=O)N[C@@H](Cc1ccccc1)C(N)=O [SKY4-48-28, Ac-Bip-Arg-(pI)DPhe-Phe-NH2] (Ac-[Bip]R[dPhe(4-I)]F-NH2) | No Activity | – | 77% @ 100 μM | 69% | –
7 | CC(=O)N1Cc2ccccc2C[C@H]1C(=O)N[C@@H](CCCNC(=N)N)C(=O)N[C@H](Cc1ccc(I)cc1)C(=O)N[C@@H](Cc1ccccc1)C(N)=O [SKY4-48-30, Ac-Tic-Arg-(pI)DPhe-Phe-NH2] (Ac-[Tic]R[dPhe(4-I)]F-NH2) | No Activity | No Activity | – | 21% | –
8 | CC(=O)N[C@@H](Cc1ccccc1)C(=O)N[C@@H](CCCNC(=N)N)C(=O)N[C@H](Cc1ccc(I)cc1)C(=O)N[C@@H](Cc1ccccc1)C(N)=O [SKY4-48-31, Ac-Phe-Arg-(pI)DPhe-Phe-NH2] (Ac-FR[dPhe(4-I)]F-NH2) | No Activity | No Activity | 50% @ 100 μM | 52% | –
9 | CC(=O)N[C@@H](Cc1ccc2ccccc2c1)C(=O)N[C@@H](CCCNC(=N)N)C(=O)N[C@H](Cc1ccc(I)cc1)C(=O)N[C@@H](Cc1ccccc1)C(N)=O [SKY4-48-32, Ac-Nal(2′)-Arg-(pI)DPhe-Phe-NH2] (Ac-[2Nal]R[dPhe(4-I)]F-NH2) | No Activity | No Activity | 42% @ 100 μM | 49% | –
10 | CC(=O)N[C@H](Cc1ccc2ccccc2c1)C(=O)N[C@@H](CCCNC(=N)N)C(=O)N[C@H](Cc1ccc(I)cc1)C(=O)N[C@@H](Cc1ccccc1)C(N)=O [SKY4-48-33, Ac-DNal(2′)-Arg-(pI)DPhe-Phe-NH2] (Ac-[d2Nal]R[dPhe(4-I)]F-NH2) | – | – | – | – | 6.9
11 | CC(=O)N[C@@H](CCCNC(=N)N)C(=O)N[C@@H](CCCNC(=N)N)C(=O)N[C@H](Cc1ccc(I)cc1)C(=O)N[C@@H](Cc1ccc2ccccc2c1)C(N)=O [SKY4-48-34, Ac-Arg-Arg-(pI)DPhe-Nal(2′)-NH2] | – | – | 51% @ 100 μM | – | –
12 | CC(=O)N[C@@H](Cc1csc2ccccc12)C(=O)N[C@@H](CCCNC(=N)N)C(=O)N[C@H](Cc1ccc(I)cc1)C(=O)N[C@@H](Cc1ccc2ccccc2c1)C(N)=O [SKY4-48-37, Ac-3Bal-Arg-(pI)DPhe-Nal(2′)-NH2] (Ac-[Bta]R[dPhe(4-I)][2Nal]-NH2) | No Activity | No Activity | – | 50% | –
13 | CC(=O)N[C@@H](Cc1ccccc1)C(=O)N[C@@H](CCCNC(=N)N)C(=O)N[C@H](Cc1ccc(I)cc1)C(=O)N[C@@H](Cc1ccc2ccccc2c1)C(N)=O [SKY4-48-39, Ac-Phe-Arg-(pI)DPhe-Nal(2′)-NH2] (Ac-FR[dPhe(4-I)][2Nal]-NH2) | No Activity | – | 44% @ 100 μM | 61% | –
14 | CC(=O)N[C@@H](Cc1ccc2ccccc2c1)C(=O)N[C@@H](CCCNC(=N)N)C(=O)N[C@H](Cc1ccc(I)cc1)C(=O)N[C@@H](Cc1ccc2ccccc2c1)C(N)=O [SKY4-48-40, Ac-Nal(2′)-Arg-(pI)DPhe-Nal(2′)-NH2] (Ac-[2Nal]R[dPhe(4-I)][2Nal]-NH2) | No Activity | No Activity | 39% @ 100 μM | 45% | –
15 | CC(=O)N[C@@H](Cc1ccc(-c2ccccc2)cc1)C(=O)N[C@@H](CCCNC(=N)N)C(=O)N[C@H](Cc1ccc(I)cc1)C(=O)N[C@H](Cc1ccc2ccccc2c1)C(N)=O [SKY4-48-44, Ac-Bip-Arg-(pI)DPhe-DNal(2′)-NH2] (Ac-[Bip]R[dPhe(4-I)][d2Nal]-NH2) | No Activity | No Activity | 32% @ 100 μM | 55% | –
16 | CC(=O)N[C@@H](Cc1ccccc1)C(=O)N[C@@H](CCCNC(=N)N)C(=O)N[C@H](Cc1ccc(I)cc1)C(=O)N[C@H](Cc1ccc2ccccc2c1)C(N)=O [SKY4-48-47, Ac-Phe-Arg-(pI)DPhe-DNal(2′)-NH2] (Ac-FR[dPhe(4-I)][d2Nal]-NH2) | No Activity | – | 22% @ 100 μM | 39% | –
17 | CC(=O)N[C@@H](Cc1c[nH]cn1)C(=O)N[C@@H](CCCNC(=N)N)C(=O)N[C@H](Cc1ccc(I)cc1)C(=O)N[C@@H](Cc1ccccc1)C(N)=O [SKY5-146-3, Ac-His-Arg-(pI)DPhe-Phe-NH2] (Ac-HR[dPhe(4-I)]F-NH2) | Full Agonist | – | – | – | –
18 | CC(=O)N[C@@H](Cc1csc2ccccc12)C(=O)N[C@@H](CCCNC(=N)N)C(=O)N[C@H](Cc1ccc(I)cc1)C(=O)N[C@@H](Cc1ccccc1)C(N)=O [SKY5-146-4, Ac-3Bal-Arg-(pI)DPhe-Phe-NH2] (Ac-[Bta]R[dPhe(4-I)]F-NH2) | No Activity | No Activity | 37% @ 100 μM | 35% | –
